Assay results reported in patent US9932637B2, “Genetic polymorphisms associated with cardiovascular disorders and drug response, methods of detection and uses thereof” (CELERA CORPORATION, priority 2003, dated 2018).

Test system: patients with prior myocardial infarction (CARE study)
Assay: CARE: association of SNPs with pravastatin treatment in cardiovascular events prevention (logistic regression, odds ratio pravastatin vs placebo by genotype; Table 8)
Assay type: in vivo, human
Conditions: for Fatal/Non-fatal Cerebrovascular Disease, Prava vs. Placebo Odds Ratio (95% CI): ABCA1 hCV2741051, All Patients; for 1st Stroke Occurred During CARE, n/total (%) / Any Report of Stroke During CARE, n/total (%) / Fatal/Non-fatal Cerebrovascular Disease, n/total (%) / Prava vs. Placebo Odds Ratio, 0 Rare Alleles / Prava vs. Placebo Odds Ratio, 1 Rare Alleles / Prava vs. Placebo Odds Ratio, 2 Rare Alleles / Odds ratio pravastatin vs placebo / Fatal CHD/Definite Non-fatal MI, n/total (%) / Hosp. for Unstable Angina, n/total (%) / Total Coronary Heart Disease Events, n/total (%): All Patients; for 1st Stroke Occurred During CARE, n/total (%) / Any Report of Stroke During CARE, n/total (%) / Fatal/Non-fatal Cerebrovascular Disease, n/total (%) / Fatal CHD/Definite Non-fatal MI, n/total (%) / Hosp. for Unstable Angina, n/total (%) / Total Coronary Heart Disease Events, n/total (%): Prava; for Catheterization, n/total (%): ABCC8 hCV600632, All Patients; for Catheterization, n/total (%) / Nonfatal MI (Probable/Definite), n/total (%) / Nonfatal MI (def & prob), n/total (%): Prava arm
From the text: In order to identify genetic markers associated with acute coronary events (e.g. MI, stroke, unstable angina, congestive heart failure, etc.) or response to statin treatment for the prevention of coronary events, samples from the Cholesterol and Recurrent Events (CARE) study (a randomized multicentral double-blinded trial on secondary prevention of acute coronary events with pravastatin) (Sacks et al., 1991, Am. J. Cardiol. 68: 1436-1446) were genotyped. A well-documented myocardial infarction (MI) was one of the enrollment criteria for entry into the CARE study. Patients were enrolled in the CARE trial from 80 participating study centers. […] Patients were randomized to receive either 40 mg of pravastatin once daily or a matching placebo. The primary endpoint of the trial was death from coronary heart disease and the median duration of follow-up was 5.0 years (range, 4.0 to 6.2 years). […] Secondary endpoints of other related cardiovascular or metabolic disease events, and changes in clinical variables were also recorded in pravastatin-treated and placebo groups. All individuals included in the study had signed a written informed consent form and the study protocol was approved by the respective Institutional Review Boards (IRBs).
For genotyping SNPs in CARE patient samples, DNA was extracted from blood samples using conventional DNA extraction methods such as the QIA-amp kit from Qiagen. Genotypes were obtained on an ABI PRISM® 7900HT Sequence Detection PCR system (Applied Biosystems, Foster City, Calif.) by kinetic allele-specific PCR, similar to the method described by Germer et al. (Germer S., Holland M. J., Higuchi R. 2000, Genome Res. 10: 258-266).
Statistical analysis for association of SNPs with pravastatin treatment in cardiovascular events prevention (Table 8) was carried out using an overall logistic regression model that included an intercept, a parameter for the effect of a genotype containing two rare alleles versus a genotype containing no rare alleles, a parameter for the effect of a genotype containing one rare allele versus a genotype containing no rare alleles, a parameter for the effect of use of pravastatin versus the use of placebo, and parameters for the interaction effects between SNP genotypes and pravastatin use. The test of the overall model is a chi-square test with two degrees of freedom for analyses containing all three genotypes, and one degree of freedom for analyses containing two genotypes.
Effect sizes were estimated through odds ratios (pravastatin group versus placebo) for carriers of each genotype (groups of 0, 1, and 2 minor allele carriers). The effect was considered to be significant if p-value for testing whether any of the interactions between SNP genotypes and pravastatin use were <0.05. […] Odds ratios less than one indicate that the specific SNP allele has a protective effect and odds ratios greater than one indicate that the specific SNP allele has an adverse effect.

[1] = ABCA1 hCV2741051, 1 Rare Allele, n/total 5/651
[2] = ABCA1 hCV2741051, 1st Stroke Occurred During CARE
[3] = ABCA1 hCV2741051, 2 Rare Alleles, n/total 2/127
[4] = ABCA1 hCV2741051, Any Report of Stroke During CARE
[5] = ADAMTS13 hCV11571465, All Patients, 0 Rare Alleles
[6] = ADAMTS13 hCV11571465, All Patients, 1 Rare Allele
[7] = ADAMTS13 hCV11571465, All Patients, 2 Rare Alleles
[8] = AGTR1 hCV3187716, Fatal CHD/Definite Non-fatal MI
[9] = AGTR1 hCV3187716, Hosp. for Unstable Angina
[10] = AGTR1 hCV3187716, Total Coronary Heart Disease Events

CC[C@H](C)C(=O)O[C@H]1C[C@H](O)C=C2C=C[C@H](C)[C@H](CC[C@@H](O)C[C@@H](O)CC(=O)O)[C@H]21 [pravastatin]
Fatal/Non-fatal Cerebrovascular Disease, Prava vs. Placebo Odds Ratio (95% CI) (0 Rare Alleles): 0.98 | Fatal/Non-fatal Cerebrovascular Disease, Prava vs. Placebo Odds Ratio (95% CI) (1 Rare Alleles): 0.43 | Fatal/Non-fatal Cerebrovascular Disease, Prava vs. Placebo Odds Ratio (95% CI) (2 Rare Alleles): 0.26 | 1st Stroke Occurred During CARE, n/total (%) (ABCA1 hCV2741051, 0 Rare Alleles, n/total 26/730): (3.6%) | Any Report of Stroke During CARE, n/total (%) (ABCA1 hCV2741051, 0 Rare Alleles, n/total 27/730): (3.7%) | Fatal/Non-fatal Cerebrovascular Disease, n/total (%) (ABCA1 hCV2741051, 0 Rare Alleles, n/total 51/730): (7.0%) | 1st Stroke Occurred During CARE, n/total (%) [1]: (0.8%) | Any Report of Stroke During CARE, n/total (%) [1]: (0.8%) | Fatal/Non-fatal Cerebrovascular Disease, n/total (%) (ABCA1 hCV2741051, 1 Rare Allele, n/total 18/651): (2.8%) | Prava vs. Placebo Odds Ratio, 0 Rare Alleles [2]: 0.98 | Prava vs. Placebo Odds Ratio, 1 Rare Alleles [2]: 0.26 | Prava vs. Placebo Odds Ratio, 2 Rare Alleles [2]: 0.23 | 1st Stroke Occurred During CARE, n/total (%) [3]: (1.6%) | Any Report of Stroke During CARE, n/total (%) [3]: (1.6%) | Fatal/Non-fatal Cerebrovascular Disease, n/total (%) (ABCA1 hCV2741051, 2 Rare Alleles, n/total 3/127): (2.4%) | Prava vs. Placebo Odds Ratio, 0 Rare Alleles [4]: 0.92 | Prava vs. Placebo Odds Ratio, 1 Rare Alleles [4]: 0.21 | Prava vs. Placebo Odds Ratio, 2 Rare Alleles [4]: 0.23 | Catheterization, n/total (%) (0 Rare Alleles): (12.0%) | Catheterization, n/total (%) (1 Rare Allele): (8.8%) | Catheterization, n/total (%) (2 Rare Alleles): (10.2%) | Odds ratio pravastatin vs placebo (ABCC8 hCV600632, Catheterization, 0 rare alleles): 1.21 | Odds ratio pravastatin vs placebo (ABCC8 hCV600632, Catheterization, 1 rare allele): 0.55 | Odds ratio pravastatin vs placebo (ABCC8 hCV600632, Catheterization, 2 rare alleles): 0.81 | Nonfatal MI (Probable/Definite), n/total (%) [5]: (9.1%) | Nonfatal MI (def & prob), n/total (%) [5]: (9.1%) | Nonfatal MI (Probable/Definite), n/total (%) [6]: (10.3%) | Nonfatal MI (def & prob), n/total (%) [6]: (9.6%) | Nonfatal MI (Probable/Definite), n/total (%) [7]: (6.6%) | Nonfatal MI (def & prob), n/total (%) [7]: (6.2%) | Odds ratio pravastatin vs placebo (ADAMTS13 hCV11571465, Nonfatal MI (Probable/Definite), 0 rare alleles): 0.62 | Odds ratio pravastatin vs placebo (ADAMTS13 hCV11571465, Nonfatal MI (Probable/Definite), 1 rare allele): 0.88 | Odds ratio pravastatin vs placebo (ADAMTS13 hCV11571465, Nonfatal MI (Probable/Definite), 2 rare alleles): 0.38 | Odds ratio pravastatin vs placebo (ADAMTS13 hCV11571465, Nonfatal MI (def & prob), 0 rare alleles): 0.65 | Odds ratio pravastatin vs placebo (ADAMTS13 hCV11571465, Nonfatal MI (def & prob), 1 rare allele): 0.91 | Odds ratio pravastatin vs placebo (ADAMTS13 hCV11571465, Nonfatal MI (def & prob), 2 rare alleles): 0.37 | Fatal CHD/Definite Non-fatal MI, n/total (%) (AGTR1 hCV3187716, 0 Rare Alleles, n/total 63/769): (8.2%) | Hosp. for Unstable Angina, n/total (%) (AGTR1 hCV3187716, 0 Rare Alleles, n/total 120/769): (15.6%) | Total Coronary Heart Disease Events, n/total (%) (AGTR1 hCV3187716, 0 Rare Alleles, n/total 227/769): (29.5%) | Fatal CHD/Definite Non-fatal MI, n/total (%) (AGTR1 hCV3187716, 1 Rare Allele, n/total 72/625): (11.5%) | Hosp. for Unstable Angina, n/total (%) (AGTR1 hCV3187716, 1 Rare Allele, n/total 103/625): (16.5%) | Total Coronary Heart Disease Events, n/total (%) (AGTR1 hCV3187716, 1 Rare Allele, n/total 194/625): (31.0%) | Fatal CHD/Definite Non-fatal MI, n/total (%) (AGTR1 hCV3187716, 2 Rare Alleles, n/total 5/120): (4.2%) | Hosp. for Unstable Angina, n/total (%) (AGTR1 hCV3187716, 2 Rare Alleles, n/total 8/120): (6.7%) | Total Coronary Heart Disease Events, n/total (%) (AGTR1 hCV3187716, 2 Rare Alleles, n/total 20/120): (16.7%) | Prava vs. Placebo Odds Ratio, 0 Rare Alleles [8]: 0.63 | Prava vs. Placebo Odds Ratio, 1 Rare Alleles [8]: 0.95 | Prava vs. Placebo Odds Ratio, 2 Rare Alleles [8]: 0.24 | Prava vs. Placebo Odds Ratio, 0 Rare Alleles [9]: 0.89 | Prava vs. Placebo Odds Ratio, 1 Rare Alleles [9]: 0.90 | Prava vs. Placebo Odds Ratio, 2 Rare Alleles [9]: 0.27 | Prava vs. Placebo Odds Ratio, 0 Rare Alleles [10]: 0.80 | Prava vs. Placebo Odds Ratio, 1 Rare Alleles [10]: 0.82 | Prava vs. Placebo Odds Ratio, 2 Rare Alleles [10]: 0.38 | Nonfatal MI (Probable/Definite), n/total (%) (APOE hCV905013, All Patients, 0 Rare Alleles): (8.4%) | Nonfatal MI (Probable/Definite), n/total (%) (APOE hCV905013, All Patients, 1 Rare Allele): (10.4%) | Nonfatal MI (Probable/Definite), n/total (%) (APOE hCV905013, All Patients, 2 Rare Alleles): (7.8%) | Odds ratio pravastatin vs placebo (APOE hCV905013, Nonfatal MI (Probable/Definite), 0 rare alleles): 0.51
